Results reported in patent US20250026753A1, “FUSED TRIAZINONE DERIVATIVES AND METHODS OF USING THE SAME” (Rgenta Therapeutics, Inc., priority 2021, published 2025).
Counter-ions that a name gives are not always drawn.

Experiments:
K562 = assay: Cell proliferation assay (CellTiterGlo, 72 hour incubation), K562; assay type: cell-based; conditions: Homo sapiens, K562 cells, inhibition of cell proliferation, CellTiterGlo luminescence
Method: (§1) Various cancer cell lines including K562 and COLO201, were treated with the compounds of the present disclosure to assess their effect on inhibiting cell proliferation.
(§2) For compound preparation, test compounds were diluted in duplicates from 10 mM stocks in 11-points 1:3 serial dilutions in DMSO. Then 125 nL test compounds at the serial dilutions were dispensed into 384-well assay plate using Echo dispenser. Staurosporine at 1 mM stock (5 μM final concentration) and DMSO (0.500 final concentration) were used as the positive and negative controls respectively.
(§3) To prepare cell lines, each frozen cell line stock was resuspended and grown in proper growth medium to a density of 40,000 cells/mL. Then 25 μL of cell suspension were dispensed into the assay plate to give seed cell density at 1,000 cells/well, compounds at 50 μM top concentration with 11-point serial dilutions, and 0.5% o DMSO final concentration. Assay plates were then centrifuged at 300 rpm for 1 minute and then incubated at 37° C., 9500 humidity, 500 CO2 for 72 hours. After the 72 hour incubation, the assay plate and its contents were equilibrated at room temperature for approximately 30 minutes. 25 μL of CellTiterGlo reagent was added to the assay plate and mixed for two minutes on an orbital shaker. Then after 10 minutes of incubation of assay plate at from temperature, the luminescence (RLU) signals in each well were recorded using Envision plate reader, then converted to percentage inhibition values using the signals in staurosporine and DMSO treated wells as the references. IC50 values were determined by curve fitting in Levenberg-Marquardt algorithm.

COLO201 = assay: Cell proliferation assay (CellTiterGlo, 72 hour incubation), COLO201; assay type: cell-based; conditions: Homo sapiens, COLO 201, COLO201 cells, inhibition of cell proliferation, CellTiterGlo luminescence
Method: as §1, §2, §3

Row | IC50 (K562) [µM] | IC50 (COLO201) [µM] | SMILES
1 | < 1 | < 1 | Cc1cn2cc(-c3nc(=O)n4cc(N5CCN[C@@H](C)C5)cc(F)c4n3)cc(F)c2n1 [Compound 116, (S)-9-fluoro-2-(8-fluoro-2-methylimidazo[1,2-a]pyridine-6-yl)-7-(3-methylpiperazin-1-yl)-4H-pyrido[1,2-a][1,3,5]triazin-4-one]
2 | ≥ 10 | ≥ 10 | Cc1cn2cc(-c3nc(=O)n4cc(N5CCCNCC5)ccc4n3)cc(F)c2n1 [Compound 104, 7-(1,4-diazepan-1-yl)-2-(8-fluoro-2-methylimidazo[1,2-a]pyridin-6-yl)-4H-pyrido[1,2-a][1,3,5]triazin-4-one hydrochloride]
3 | < 1 | 1 to 10 | Cc1cn2cc(-c3nc(=O)n4cc(N5CCNCC5)c(C)cc4n3)cc(F)c2n1 [Compound 115, 2-(8-fluoro-2-methylimidazo[1,2-a]pyridin-6-yl)-8-methyl-7-(piperazin-1-yl)-4H-pyrido[1,2-a][1,3,5]triazin-4-one hydrochloride]
4 | < 1 | < 1 | Cc1cn2cc(-c3nc(=O)n4cc(N5CCN[C@@H](C)C5)ccc4n3)cc(F)c2n1 [Compound 101]
5 | 1 to 10 | 1 to 10 | Cc1cn2cc(-c3nc(=O)n4cc(N5CCN(C)CC5)ccc4n3)cc(F)c2n1 [Compound 103, 2-(8-fluoro-2-methylimidazo[1,2-a]pyridin-6-yl)-7-(4-methylpiperazin-1-yl)-4H-pyrido[1,2-a][1,3,5]triazin-4-one]
6 | 1 to 10 | ≥ 10 | Cc1cn2cc(-c3nc(=O)n4cc(N5CC6(CNC6)C5)ccc4n3)cc(F)c2n1 [Compound 127, 7-2,6-diazaspiro[3.3]heptan-2-yl-2-8-fluoro-2-methylimidazo[1,2-a]pyridin-6-yl-4H-pyrido[1,2-a][1,3,5]triazin-4-one trifluoroacetic acid]
7 | < 1 | < 1 | Cc1cn2cc(-c3nc(=O)n4cc(N5C[C@@H](C)N[C@@H](C)C5)ccc4n3)cc(F)c2n1 [Compound 107, 7-((3S,5R)-3,5-dimethylpiperazin-1-yl)-2-(8-fluoro-2-methylimidazo[1,2-a]pyridin-6-yl)-4H-pyrido[1,2-a][1,3,5]triazin-4-one hydrochloride]
8 | < 1 | < 1 | Cc1cc2cc(-c3nc(=O)n4cc(N5CCN[C@@H](C)C5)cc(F)c4n3)cc(C)n2n1 [Compound 131, 2-{2,7-dimethylpyrazolo[1,5-a]pyridin-5-yl}-9-fluoro-7-[(3S)-3-methylpiperazin-1-yl]-4H-pyrido[1,2-a][1,3,5]triazin-4-one]
9 | < 1 | < 1 | Cc1cn2cc(-c3nc(=O)n4cc(N5CCNC(C)(C)C5)ccc4n3)cc(F)c2n1 [Compound 109, 7-(3,3-dimethylpiperazin-1-yl)-2-(8-fluoro-2-methylimidazo [1,2-a]pyridin-6-yl)-4H-pyrido[1,2-a][1,3,5]triazin-4-one]
10 | < 1 | < 1 | Cc1cn2cc(-c3nc(=O)n4cc(N5CCNCC5)cc(F)c4n3)cc(F)c2n1 [Compound 110, 9-fluoro-2-(8-fluoro-2-methylimidazo[1,2-a]pyridin-6-yl)-7-(piperazin-1-yl)-4H-pyrido[1,2-a][1,3,5]triazin-4-one hydrochloride]
11 | < 1 | 1 to 10 | C[C@H]1CN(c2ccc3nc(-c4cc(F)c5nn(C)cc5c4)nc(=O)n3c2)CCN1 [Compound 133, (S)-2-(7-fluoro-2-methyl-2H-indazol-5-yl)-7-(3-methylpiperazin-1-yl)-4H-pyrido[1,2-a][1,3,5]triazin-4-one hydrochloride]
12 | ≥ 10 | ≥ 10 | COc1c(N2CCNCC2)ccc2nc(-c3cc(F)c4nc(C)cn4c3)nc(=O)n12 [Compound 120, 2-(8-fluoro-2-methylimidazo[1,2-a]pyridin-6-yl)-6-methoxy-7-(piperazin-1-yl)-4H-pyrido[1,2-a][1,3,5]triazin-4-one formic acid]
13 | 1 to 10 | < 1 | Cc1cn2cc(-c3nc(=O)n4cc(N5CCNCC5)cc(C)c4n3)cc(F)c2n1 [Compound 108, 2-(8-fluoro-2-methylimidazo[1,2-a]pyridin-6-yl)-9-methyl-7-(piperazin-1-yl)-4H-pyrido[1,2-a][1,3,5]triazin-4-one hydrochloride]
14 | ≥ 10 | ≥ 10 | Cc1cn2cc(-c3nc(=O)n4cc(N5CC6CNCC6C5)ccc4n3)cc(F)c2n1 (stereo not shown) [Compound 106, 2-(8-fluoro-2-methylimidazo[1,2-a]pyridin-6-yl)-7-(hexahydropyrrolo[3,4-c]pyrrol-2(1H)-yl)-4H-pyrido[1,2-a][1,3,5]triazin-4-one hydrochloride]
